The target of assay [1] is T1, CDK9/CycT1 (Homo sapiens, UniProt P50750).
T1 construct: Recombinant full-length His-tagged human CDK9 and CycT1, expressed in insect cells; His; purchased Life Technologies PV4131; host or cells: insect cells
Description: CDK9/CycT1 high ATP kinase assay (TR-FRET, 2 mM ATP). It is filed as biochemical. As to conditions: read-out: CDK9/CyclinT1, 2 mM ATP (high ATP) IC50-[mol/l] (median). How it is done: CDK9/CycT1-inhibitory activity of compounds of the present invention at a high ATP concentration after preincubation of enzyme and test compounds was quantified employing the CDK9/CycT1 TR-FRET assay as described in the following paragraphs.
Recombinant full-length His-tagged human CDK9 and CycT1, expressed in insect cells and purified by Ni-NTA affinity chromatography, were purchased from Life Technologies (Cat. No PV4131). As substrate for the kinase reaction biotinylated peptide biotin-Ttds-YISPLKSPYKISEG (C-terminus in amide form) was used which can be purchased e.g. form the company JERINI peptide technologies (Berlin, Germany).
For the assay 50 nanoL of a 100 fold concentrated solution of the test compound in DMSO was pipetted into either a black low volume 384 well microtiter plate or a black 1536 well microtiter plate (both Greiner Bio-One, Frickenhausen, Germany), 2 microL of a solution of CDK9/CycT1 in aqueous assay buffer [50 millimol/L Tris/HCl pH 8.0, 10 millimol/L MgCl2, 1.0 millimol/L dithiothreitol, 0.1 millimol/L sodium ortho-vanadate, 0.01% (v/v) Nonidet-P40 (Sigma)] were added and the mixture was incubated for 15 min at 22° C. to allow pre-binding of the test compounds to the enzyme before the start of the kinase reaction. Then the kinase reaction was started by the addition of 3 microL of a solution of adenosine-tri-phosphate (ATP, 3.3 millimol/L=> final conc. in the 5 microL assay volume is 2 millimol/L) and substrate (1.25 micromol/L=> final conc. in the 5 microL assay volume is 0.75 micromol/L) in assay buffer and the resulting mixture was incubated for a reaction time of 25 min at 22° C. The concentration of CDK9/CycT1 was adjusted depending of the activity of the enzyme lot and was chosen appropriate to have the assay in the linear range, typical concentrations were in the range of 0.5 microg/ml. The reaction was stopped by the addition of 3 microL of a solution of TR-FRET detection reagents (0.33 micromol/L streptavidine-XL665 [Cisbio Bioassays, Codolet, France] and 1.67 nanomol/L anti-RB(pSer807/pSer8l 1)-antibody from BD Pharmingen [#558389] and 2 nanomol/L LANCE EU-W1024 labeled anti-mouse IgG antibody [Perkin-Elmer, product no. AD0077]) in an aqueous EDTA-solution (167 millimol/L EDTA, 0.2% (w/v) bovine serum albumin in 100 millimol/L HEPES pH 7.5).
The resulting mixture was incubated 1 h at 22° C. to allow the formation of complex between the phosphorylated biotinylated peptide and the detection reagents. Subsequently the amount of phosphorylated substrate was evaluated by measurement of the resonance energy transfer from the Eu-chelate to the streptavidine-XL. Therefore, the fluorescence emissions at 620 nm and 665 nm after excitation at 350 nm was measured in a TR-FRET reader, e.g. a Pherastar (BMG Labtechnologies, Offenburg, Germany) or a Viewlux (Perkin-Elmer). The ratio of the emissions at 665 nm and at […] was taken as the measure for the amount of phosphorylated substrate. The data were normalised (enzyme reaction without inhibitor=0% inhibition, all other assay components but no enzyme=100% inhibition).
Background: TR-FRET usually uses a lanthanide donor and a delayed reading to cut background.

In assay [2] the test system is CAL-120 human breast adenocarcinoma cells. The assay can be described thus: Proliferation assay CAL-120 (crystal violet). It is filed as cell-based. The conditions noted are these: 96 h, CAL-120 cells, 4 days, read-out: Prolif-CAL-120_ IC50-[mol/l] (median). How it is done: Human tumour cells were originally obtained from the American Type Culture Collection (ATCC), or from the Deutsche Sammlung von Mikroorganismen und Zellkulturen (DSMZ, German Collection of Microorganisms and Cell Cultures). Cultivated tumour cells (CAL-120, human breast adenocarcinoma cells, DSMZ ACC-459; MDA-MB-231, human breast cancer cells, ATCC HTB-26) were plated at a density of 4,000 cells/well in a 96-well multititer plate in 200 microL of their respective growth medium supplemented 10% fetal calf serum. After 24 hours, the cells of one plate (zero-point plate) were stained with crystal violet (see below), while the medium of the other plates was supplemented with the test substances in various concentrations (0 micromol/L, as well as in the range of 0.01-10 micromol/L; the final concentration of the solvent dimethyl sulfoxide was adjusted to 0.1%) using a Tecan HP D300 Digital Dispenser. The cells were incubated for 4 days in the presence of test substances. Cell proliferation was determined by staining the cells with crystal violet: the cells were fixed by adding 20 microL/measuring point of an 11% glutaric aldehyde solution for 15 minutes at room temperature. After three washing cycles of the fixed cells with water, the plates were dried at room temperature. The cells were stained by adding 100 microL/measuring point of a 0.1% crystal violet solution (pH 3.0). After three washing cycles of the stained cells with water, the plates were dried at room temperature. The dye was dissolved by adding 100 microL/measuring point of a 10% acetic acid solution. The extinction was determined by photometry at a wavelength of 595 nm. The change of cell number, in percent, was calculated by normalization of the measured values to the extinction values of the zero-point plate (=0%) and the extinction of the untreated (0 μM) cells (=100%). The IC50 values (inhibitory concentration at 50% of maximal effect) were determined by means of a 4 parameter fit.

Assay [3] deals with T2, CDK12 (Homo sapiens, UniProt Q9NYV4).
T2 construct: endogenous in cells; host or cells: CAL-120 human breast cancer cells (DSMZ ACC 459)
The assay can be described thus: CDK12 nuclear protein level: immunofluorescence/high content analysis in CAL-120 cells. The assay is classed as cell-based. The conditions noted are these: for DC50: CAL-120 cells, 24 h, nuclear CDK12 staining, read-out: CDK12 degradation IF DC50-[mol/l] (median); for (IC50 CDK12 high ATP) to (Degradation DC50 CDK12) ratio: IC50 CDK12 hATP (Table 2) divided by DC50 CDK12 IF (Table 8). The method, then: In the context of the present invention, the term “DC50 CDK12” refers to the DC50 values obtained according to the assay described in this section (6) herein below, i.e. the DC50 values for the degradation of CDK12.
CAL-120 human breast cancer cells (DSMZ ACC 459) are seeded in 1536-well microtiter plates (800 cells per well) containing 50 nanoL of compounds in Dose-Response. Control wells received DMSO or Reference Example 1. Plates are then incubated for 24 h at 37° C. in an humidified incubator and fixed with 4% PFA for 10 min. Then immunofluorescence (IF) against CDK12 (CellSignalling CDK12 Antibody #11973, rabbit, 1:100 dilution) is performed using standard IF protocols. Cells are then stained with Hoechst 33342 (Life Technologies, H-1399, 0.1 microg/ml) and imaged on an automated confocal microscopy system (e.g. Perkin Elmer Opera Phenix). Nuclear and cytoplasmic intensity as well as the nuclear/cytoplasmic intensity ratio is determined by automated image analysis using custom generated scripts (MetaXpress). Data is then transferred to Genedata Screener software, normalized to DMSO and control and DC50 values (degrading concentration to achieve 50% reduction of nuclear CDK12 staining intensity relative to controls) are reported.

pIC50: −log10 of the molar value.

T1 sequence (P50750 whole entry): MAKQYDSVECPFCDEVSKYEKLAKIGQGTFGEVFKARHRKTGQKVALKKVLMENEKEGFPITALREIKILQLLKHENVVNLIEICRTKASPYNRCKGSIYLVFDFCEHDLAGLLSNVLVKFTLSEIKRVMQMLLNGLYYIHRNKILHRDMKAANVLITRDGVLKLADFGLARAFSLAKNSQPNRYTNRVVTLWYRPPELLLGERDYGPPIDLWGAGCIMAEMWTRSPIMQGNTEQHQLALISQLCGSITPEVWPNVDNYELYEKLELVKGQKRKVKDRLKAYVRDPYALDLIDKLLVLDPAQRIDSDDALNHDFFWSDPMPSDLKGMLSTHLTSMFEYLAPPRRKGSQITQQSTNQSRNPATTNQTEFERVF
T1 sequence (O60563 whole entry partner): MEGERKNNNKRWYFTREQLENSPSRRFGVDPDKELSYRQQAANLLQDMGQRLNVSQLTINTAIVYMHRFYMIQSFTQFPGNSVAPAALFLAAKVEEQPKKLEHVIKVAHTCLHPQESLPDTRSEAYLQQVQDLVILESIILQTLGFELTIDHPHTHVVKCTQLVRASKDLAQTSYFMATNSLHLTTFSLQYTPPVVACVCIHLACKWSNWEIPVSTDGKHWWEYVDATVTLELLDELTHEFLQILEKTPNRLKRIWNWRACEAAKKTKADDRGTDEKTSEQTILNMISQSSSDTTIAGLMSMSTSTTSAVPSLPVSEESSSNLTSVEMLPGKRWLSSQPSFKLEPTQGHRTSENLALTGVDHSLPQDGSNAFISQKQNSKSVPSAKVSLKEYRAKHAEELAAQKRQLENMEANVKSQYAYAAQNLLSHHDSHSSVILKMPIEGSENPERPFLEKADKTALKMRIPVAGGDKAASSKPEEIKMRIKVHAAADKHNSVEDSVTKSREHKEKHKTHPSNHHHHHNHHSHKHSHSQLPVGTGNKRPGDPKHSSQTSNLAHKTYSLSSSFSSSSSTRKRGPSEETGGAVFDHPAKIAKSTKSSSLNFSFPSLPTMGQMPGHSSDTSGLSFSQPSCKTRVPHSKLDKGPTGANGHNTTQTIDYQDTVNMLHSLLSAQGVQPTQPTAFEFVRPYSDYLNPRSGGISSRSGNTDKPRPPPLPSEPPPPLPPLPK
T2 sequence (Q9NYV4 whole entry): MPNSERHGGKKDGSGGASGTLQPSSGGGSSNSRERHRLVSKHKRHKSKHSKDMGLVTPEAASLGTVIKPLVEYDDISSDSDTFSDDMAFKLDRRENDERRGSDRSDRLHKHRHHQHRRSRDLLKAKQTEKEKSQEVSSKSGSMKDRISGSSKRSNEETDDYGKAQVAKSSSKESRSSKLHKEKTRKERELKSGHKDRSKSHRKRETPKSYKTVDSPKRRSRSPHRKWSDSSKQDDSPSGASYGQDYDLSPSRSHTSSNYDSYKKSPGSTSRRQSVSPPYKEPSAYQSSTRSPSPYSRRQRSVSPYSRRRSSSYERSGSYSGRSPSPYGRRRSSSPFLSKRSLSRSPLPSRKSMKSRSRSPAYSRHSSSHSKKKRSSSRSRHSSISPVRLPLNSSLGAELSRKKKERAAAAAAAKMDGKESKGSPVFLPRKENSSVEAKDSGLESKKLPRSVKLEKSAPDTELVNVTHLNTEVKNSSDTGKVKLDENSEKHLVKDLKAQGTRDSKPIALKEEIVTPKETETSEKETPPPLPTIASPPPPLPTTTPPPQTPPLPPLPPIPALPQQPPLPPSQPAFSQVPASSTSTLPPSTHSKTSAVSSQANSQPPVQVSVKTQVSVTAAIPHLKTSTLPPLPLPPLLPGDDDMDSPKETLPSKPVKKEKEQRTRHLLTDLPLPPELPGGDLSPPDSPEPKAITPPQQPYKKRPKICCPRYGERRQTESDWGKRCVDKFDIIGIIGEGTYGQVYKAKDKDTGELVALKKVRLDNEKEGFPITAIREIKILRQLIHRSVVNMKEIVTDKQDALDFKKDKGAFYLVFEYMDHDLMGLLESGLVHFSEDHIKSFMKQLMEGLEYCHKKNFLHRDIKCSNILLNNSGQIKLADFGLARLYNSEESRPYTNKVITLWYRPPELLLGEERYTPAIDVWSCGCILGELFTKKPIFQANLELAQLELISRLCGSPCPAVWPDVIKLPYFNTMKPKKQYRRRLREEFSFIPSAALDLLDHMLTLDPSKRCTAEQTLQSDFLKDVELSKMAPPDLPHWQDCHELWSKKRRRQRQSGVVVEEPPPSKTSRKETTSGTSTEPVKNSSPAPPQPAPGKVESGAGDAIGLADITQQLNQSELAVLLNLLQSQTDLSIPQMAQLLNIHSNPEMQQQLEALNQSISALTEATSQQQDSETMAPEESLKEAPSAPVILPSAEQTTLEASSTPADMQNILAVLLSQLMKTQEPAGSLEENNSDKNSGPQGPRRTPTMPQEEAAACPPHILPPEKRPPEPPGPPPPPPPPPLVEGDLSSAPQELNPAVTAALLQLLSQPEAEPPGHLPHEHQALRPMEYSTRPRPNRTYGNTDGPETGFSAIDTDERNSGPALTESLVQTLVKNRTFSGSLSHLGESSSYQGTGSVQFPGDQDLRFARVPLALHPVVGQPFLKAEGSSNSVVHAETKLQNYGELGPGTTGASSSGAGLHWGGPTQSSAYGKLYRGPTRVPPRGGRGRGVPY
T2 sequence (O75909 whole entry partner): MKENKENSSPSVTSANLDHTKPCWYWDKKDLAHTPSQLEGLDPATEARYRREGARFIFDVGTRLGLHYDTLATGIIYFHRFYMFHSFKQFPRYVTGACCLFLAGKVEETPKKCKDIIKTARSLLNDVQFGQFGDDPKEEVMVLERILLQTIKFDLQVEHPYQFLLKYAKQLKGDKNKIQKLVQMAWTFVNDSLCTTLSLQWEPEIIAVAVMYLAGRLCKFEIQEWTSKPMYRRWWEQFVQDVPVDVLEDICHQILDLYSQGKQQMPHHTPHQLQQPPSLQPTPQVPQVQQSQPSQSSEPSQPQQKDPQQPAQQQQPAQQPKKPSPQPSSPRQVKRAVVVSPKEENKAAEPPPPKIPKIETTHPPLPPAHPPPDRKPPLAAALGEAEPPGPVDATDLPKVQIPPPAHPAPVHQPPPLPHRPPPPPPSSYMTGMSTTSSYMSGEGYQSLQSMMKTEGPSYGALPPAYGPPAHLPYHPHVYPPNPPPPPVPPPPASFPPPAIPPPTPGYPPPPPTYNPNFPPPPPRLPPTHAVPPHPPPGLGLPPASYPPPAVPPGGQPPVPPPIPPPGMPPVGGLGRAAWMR

As for `Fc1ccc2[nH]c(CNc3nc(N4CCNCC4)nn4c(Br)cnc34)nc2c1F` [Example 10, 7-bromo-N-[(4,5-difluoro-1H-benzimidazol-2-yl)methyl]-2-(piperazin-1-yl)imidazo[2,1-f][1,2,4]triazin-4-amine], the values for the pIC50 in assay [1] and in assay [2] were 4.91 and 9.07, respectively. In assay [3], the DC50 was 0.132 nM. The “(IC50 CDK12 high ATP) to (Degradation DC50 CDK12) ratio” value in assay [3] amounted to 10329.

As to `Fc1cccc(-c2cnc3c(NCc4nc5ccccc5[nH]4)nc(N4CCOCC4)nn23)c1` [Example 3, N-[(1H-benzimidazol-2-yl)methyl]-7-(3-fluorophenyl)-2-(morpholin-4-yl)imidazo[2,1-f][1,2,4]triazin-4-amine], the pIC50 in assay [1] was less than 4.70. In addition, in assay [3], the DC50 came to 36 nM and the “(IC50 CDK12 high ATP) to (Degradation DC50 CDK12) ratio” value is more than 556.

Turning to `CN1CCN(c2nc(NCc3nc4c(F)cccc4[nH]3)c3ncc(Br)n3n2)CC1` [Example 23, 7-bromo-N-[(4-fluoro-1H-benzimidazol-2-yl)methyl]-2-(4-methylpiperazin-1-yl)imidazo[2,1-f][1,2,4]triazin-4-amine], the pIC50 in assay [1] is less than 4.70. Also, the pIC50 in assay [2] was 7.85. For the same compound, in assay [3], the DC50 turned out to be 4.04 nM and the “(IC50 CDK12 high ATP) to (Degradation DC50 CDK12) ratio” value was found to be 2680.

For the compound `Brc1cnc2c(NCc3nc4ccccc4[nH]3)nc(N3CCNCC3)nn12` [Example 8, N-[(1H-benzimidazol-2-yl)methyl]-7-bromo-2-(piperazin-1-yl)imidazo[2,1-f][1,2,4]triazin-4-amine], the pIC50 in assay [1] was less than 4.70; in assay [2], 8.49. Moreover, the DC50 in assay [3] came out at 0.527 nM. Also, in assay [3], the “(IC50 CDK12 high ATP) to (Degradation DC50 CDK12) ratio” value was found to be 10707.

Take `N#Cc1cnc2c(NCc3nc4ccccc4[nH]3)nc(N3CCOCC3)nn12` [Example 2, 4-{[(1H-benzimidazol-2-yl)methyl]amino}-2-(morpholin-4-yl)imidazo[2,1-f][1,2,4]triazine-7-carbonitrile]: the pIC50 in assay [1] was less than 4.70. For the same compound, the pIC50 in assay [2] was 6.99. Further, in assay [3], the DC50 was 4.83 nM and the “(IC50 CDK12 high ATP) to (Degradation DC50 CDK12) ratio” value is recorded as 1444.

Turning to `C[C@@H]1CN(c2nc(NCc3nc4c(F)c(F)ccc4[nH]3)c3ncc(C(F)(F)F)n3n2)C[C@H](C)N1` [Example 29, N-[(4,5-difluoro-1H-benzimidazol-2-yl)methyl]-2-[rel-(3R,5S)-3,5-dimethylpiperazin-1-yl]-7-(trifluoromethyl)imidazo[2,1-f][1,2,4]triazin-4-amine], the pIC50 in assay [1] is 5.34; in assay [2], 9.27. For the same compound, in assay [3], the DC50 amounted to 0.229 nM. In addition, the “(IC50 CDK12 high ATP) to (Degradation DC50 CDK12) ratio” value in assay [3] turned out to be 177.

Turning to `Fc1ccc2[nH]c(CNc3nc(N4CCOCC4)nn4c(Br)cnc34)nc2c1F` [Example 7, 7-bromo-N-[(4,5-difluoro-1H-benzimidazol-2-yl)methyl]-2-(morpholin-4-yl)imidazo[2,1-f][1,2,4]triazin-4-amine], in assay [1], the pIC50 was 5.04. Moreover, the pIC50 in assay [2] is 8.07. In addition, in assay [3], the DC50 worked out at 0.992 nM and the “(IC50 CDK12 high ATP) to (Degradation DC50 CDK12) ratio” value is recorded as 1272.

For the compound `C[C@@H]1CN(c2nc(NCc3nc4cc(F)ccc4[nH]3)c3ncc(Br)n3n2)C[C@H](C)N1` [Example 19, 7-bromo-2-[rel-(3R,5S)-3,5-dimethylpiperazin-1-yl]-N-[(5-fluoro-1H-benzimidazol-2-yl)methyl]imidazo[2,1-f][1,2,4]triazin-4-amine], the pIC50 in assay [1] was less than 4.70. The pIC50 in assay [2] was 8.94. In assay [3], the DC50 came to 0.513 nM and the “(IC50 CDK12 high ATP) to (Degradation DC50 CDK12) ratio” value is given as 12546.

Regarding `Brc1cnc2c(NCc3nc4ccccc4[nH]3)nc(N3CCOCC3)nn12` [Example 1, N-[(1H-benzimidazol-2-yl)methyl]-7-bromo-2-(morpholin-4-yl)imidazo[2,1-f][1,2,4]triazin-4-amine], the pIC50 in assay [1] was less than 4.70. In assay [3], the DC50 was found to be 6.8 nM and the “(IC50 CDK12 high ATP) to (Degradation DC50 CDK12) ratio” value was 751.

The values above are taken from US20230106032A1, “IMIDAZOTRIAZINES ACTING ON CANCER VIA INHIBITION OF CDK12” (Bayer Aktiengesellschaft, priority 2020, published 2023).
